Like-named read-outs stand apart in the source and are kept apart here. Ends that are not written are not given here.

The target in one test is insulin receptor (Homo sapiens, UniProt P06213). Nature of the test: Insulin receptor competition binding assay (scintillation proximity). On the set-up: expressed in transfected cells; plasma membrane fragments.
Another test has as its target IGF-1 receptor (Homo sapiens, UniProt P08069). As to the kind of experiment: Receptor kinase activity (phosphorylation) assay, IGF-1 receptor. The class given is cell-based. On the set-up: expressed in transfected cells; host or cells: HEK293. Particulars: for % Insulin Activity IGF-1 R: Table 12.
For test [1], the target named is T1, type B insulin receptor (IR-B) (Homo sapiens, UniProt P06213).
T1 construct: expressed in transfected cells; host or cells: HEK293
Nature of the test: Receptor kinase activity (phosphorylation) assay, type B insulin receptor. The conditions noted are these: for % Insulin Activity IR-B: Table 12. The class given is cell-based.

Test [2] has as its target T2, type A insulin receptor (IR-A) (Homo sapiens, UniProt P06213).
T2 construct: expressed in transfected cells; host or cells: HEK293
As to the kind of experiment: Receptor kinase activity (phosphorylation) assay, type A insulin receptor. The format is cell-based. The conditions noted are these: for % Insulin Activity IR-A: Table 12.

For the molecule `CC[C@H](C)[C@H](NC(=O)CN)C(=O)N[C@H](C(=O)N[C@@H](CC(=O)O)C(=O)N[C@@H](CCC(=O)O)C(=O)N[C@H]1CSSC[C@@H]2NC(=O)[C@H](CO)NC(=O)[C@H](CCCNC(=N)N)NC(=O)[C@H](Cc3ccccc3)NC(=O)[C@H](CSSC[C@H](NC(=O)[C@H](CC(C)C)NC(=O)[C@H](Cc3c[nH]cn3)NC(=O)[C@H](CCC(=O)O)NC(=O)[C@@H]3CCCN3C(=O)CN)C(=O)NCC(=O)N[C@@H](C)C(=O)N[C@@H](CC(=O)O)C(=O)N[C@@H](CC(C)C)C(=O)N[C@@H](C(C)C)C(=O)N[C@@H](CC(=O)O)C(=O)N[C@@H](C)C(=O)N[C@@H](CC(C)C)C(=O)N[C@@H](Cc3ccc(O)cc3)C(=O)N[C@@H](CC(C)C)C(=O)N[C@@H](C(C)C)C(=O)N[C@H](C(=O)NCC(=O)N[C@@H](CC(=O)O)C(=O)N[C@@H](CCCNC(=N)N)C(=O)NCC(=O)N[C@@H](Cc3ccccc3)C(=O)N[C@@H](Cc3ccc(O)cc3)C(N)=O)CSSC[C@@H](C(=O)N[C@@H](C)C(N)=O)NC(=O)[C@H](Cc3ccc(O)cc3)NC(=O)[C@H](CC[S+](C)[O-])NC(=O)[C@H](CCC(=O)O)NC(=O)[C@H](CC(C)C)NC(=O)[C@H](CCCNC(=N)N)NC(=O)[C@H](CCCNC(=N)N)NC(=O)[C@H](CC(C)C)NC(=O)[C@H](CC(=O)O)NC2=O)NC1=O)C(C)C` (stereo partly shown) [IGF-1 A:B(H5D10Y16L17) (S═O) DPI], the “% insulin (in test)” value at insulin receptor (Table 9, Insulin Receptor) stood at 316.0%.
Consider `CC[C@H](C)[C@H](NC(=O)CNC(=O)[C@@H]1CCCN1C(=O)[C@H](C)N)C(=O)N[C@H](C(=O)N[C@@H](CC(=O)O)C(=O)N[C@@H](CCC(=O)O)C(=O)N[C@H]1CSSC[C@@H]2NC(=O)[C@H](CO)NC(=O)[C@H](CCCNC(=N)N)NC(=O)[C@H](Cc3ccccc3)NC(=O)[C@H](CSSC[C@H](NC(=O)[C@H](CC(C)C)NC(=O)[C@@H](NC(=O)[C@H](CCC(=O)O)NC(=O)[C@@H]3CCCN3C(=O)CN)[C@@H](C)O)C(=O)NCC(=O)N[C@@H](C)C(=O)N[C@@H](CCC(=O)O)C(=O)N[C@@H](CC(C)C)C(=O)N[C@@H](C(C)C)C(=O)N[C@@H](CC(=O)O)C(=O)N[C@@H](C)C(=O)N[C@@H](CC(C)C)C(=O)N[C@@H](Cc3ccc(O)cc3)C(=O)N[C@@H](CC(C)C)C(=O)N[C@@H](C(C)C)C(=O)N[C@H](C(=O)NCC(=O)N[C@@H](CC(=O)O)C(=O)N[C@@H](CCCNC(=N)N)C(=O)NCC(=O)N[C@@H](Cc3ccccc3)C(=O)N[C@@H](Cc3ccc(O)cc3)C(=O)N[C@@H](Cc3ccccc3)C(=O)N[C@@H](CC(N)=O)C(=O)N[C@@H](CCCCN)C(=O)N3CCC[C@H]3C(=O)N[C@H](C(N)=O)[C@@H](C)O)CSSC[C@@H](C(=O)N[C@@H](C)C(N)=O)NC(=O)[C@H](Cc3ccc(O)cc3)NC(=O)[C@H](CCSC)NC(=O)[C@H](CCC(=O)O)NC(=O)[C@H](CC(C)C)NC(=O)[C@H](CCCNC(=N)N)NC(=O)[C@H](CCCNC(=N)N)NC(=O)[C@H](CC(C)C)NC(=O)[C@H](CC(=O)O)NC2=O)NC1=O)C(C)C` [IGF1 (Y^B16L^B17) (AlaPro)^A-1,0], for which, at insulin receptor (Table 8), the “% of Insulin Activity” value was found to be 37.12%.
As for “B2, B22-PEG10K di-PEGylated MIU-35 (GPEHLCGAELVDALYLVCGDK(PEG 10 kDa)GFYGYGSSSRKAPQTGIVDECCFRSCDLRRLENYCN; not fully specified (N-terminus); ends and bridges not checked; also: PEG10K at B2) [MIU-68]”, the “% Insulin Activity IGF-1 R” value with IGF-1 receptor is <0.1%. For the same molecule, in test [1], the “% Insulin Activity IR-B” value turned out to be 0.1%. For the same molecule, in test [2], the “% Insulin Activity IR-A” value was 0.4%.
Consider “B^1(A5H10Y16L17)25-C^1-A^1(H8N18N21) [Ala,B5]”, for which the “IGF-1 R” value on IGF-1 receptor was 2.5%. In addition, the IR-B in test [1] is reported as 5.7%.
Regarding “B2, A14-PEG10K di-PEGylated MIU-35 (GPEHLCGAELVDALYLVCGDRGFYGYGSSSRKAPQTGIVDECCFRSCDLK(PEG 10 kDa)RLENYCN; not fully specified (N-terminus); ends and bridges not checked; also: PEG10K at B2) [MIU-69]”, the “% Insulin Activity IGF-1 R” value with IGF-1 receptor was <0.1%. Further, in test [1], the “% Insulin Activity IR-B” value came out at 0.5%. Besides, the “% Insulin Activity IR-A” value in test [2] came to 1.0%.
Molecule “B^1(H5,10Y16L17R29)30-C^1des9-12-A^1(H8,N18,21) (GPEHLCGAHLVDALYLVCGDRGFYFNKRTGYGSSSRRGIVDECCHRSCDLRRLENYCN) [MIU-43]” showed an IGF-1 R with IGF-1 receptor (Table 14) of 14.2%. Also, the IR-B in test [1] (Table 14) is listed as 16.7%. For the same molecule, in test [2] (Table 14), the IR-A was found to be 97.5%.
Turning to `CC[C@H](C)[C@H](NC(=O)CN)C(=O)N[C@H](C(=O)N[C@@H](CC(=O)O)C(=O)N[C@@H](CCC(=O)O)C(=O)N[C@H]1CSSC[C@@H]2NC(=O)[C@H](CO)NC(=O)[C@H](CCCNC(=N)N)NC(=O)[C@H](Cc3ccccc3)NC(=O)[C@H](CSSC[C@H](NC(=O)[C@H](CC(C)C)NC(=O)[C@@H](NC(=O)[C@H](CCC(=O)O)NC(=O)[C@@H]3CCCN3C(=O)CN)[C@@H](C)O)C(=O)NCC(=O)N[C@@H](C)C(=O)N[C@@H](CCC(=O)O)C(=O)N[C@@H](CC(C)C)C(=O)N[C@@H](C(C)C)C(=O)N[C@@H](CC(=O)O)C(=O)N[C@@H](C)C(=O)N[C@@H](CC(C)C)C(=O)N[C@@H](Cc3ccc(O)cc3)C(=O)N[C@@H](CC(C)C)C(=O)N[C@@H](C(C)C)C(=O)N[C@H](C(=O)NCC(=O)N[C@@H](CC(=O)O)C(=O)N[C@@H](CCCNC(=N)N)C(=O)NCC(=O)N[C@@H](Cc3ccccc3)C(=O)N[C@@H](Cc3ccc(O)cc3)C(=O)N[C@@H](Cc3ccccc3)C(=O)N[C@@H](CC(N)=O)C(=O)N[C@@H](CCCCN)C(=O)N3CCC[C@H]3C(=O)N[C@H](C(N)=O)[C@@H](C)O)CSSC[C@@H](C(=O)N[C@@H](C)C(N)=O)NC(=O)[C@H](Cc3ccc(O)cc3)NC(=O)[C@H](CCSC)NC(=O)[C@H](CCC(=O)O)NC(=O)[C@H](CC(C)C)NC(=O)[C@H](CCCNC(=N)N)NC(=O)[C@H](CCCNC(=N)N)NC(=O)[C@H](CC(C)C)NC(=O)[C@H](CC(=O)O)NC2=O)NC1=O)C(C)C` [IGF1 (Y^B16L^B17)], on insulin receptor (Table 6), the “% of Insulin Activity” value stood at 262%.
Regarding “B^1(H5,10Y16L17A24)25-C^1-A^1(H8N18,N21) [Ala,B24]”, the “IGF-1 R” value on IGF-1 receptor worked out at 0.3%. Also, in test [1], the IR-B was found to be 0.4%. Besides, the IR-A in test [2] was 0.1%.
As to `CC[C@H](C)[C@H](NC(=O)CN)C(=O)N[C@H](C(=O)N[C@@H](CC(=O)O)C(=O)N[C@@H](CCC(=O)O)C(=O)N[C@H]1CSSC[C@@H]2NC(=O)[C@H](CO)NC(=O)[C@H](C)NC(=O)[C@H](Cc3c[nH]cn3)NC(=O)[C@H](CSSC[C@H](NC(=O)[C@H](CC(C)C)NC(=O)[C@H](Cc3c[nH]cn3)NC(=O)[C@H](CCC(=O)O)NC(=O)[C@@H]3CCCN3C(=O)CN)C(=O)NCC(=O)N[C@@H](C)C(=O)N[C@@H](CC(=O)O)C(=O)N[C@@H](CC(C)C)C(=O)N[C@@H](C(C)C)C(=O)N[C@@H](CC(=O)O)C(=O)N[C@@H](C)C(=O)N[C@@H](CC(C)C)C(=O)N[C@@H](Cc3ccc(O)cc3)C(=O)N[C@@H](CC(C)C)C(=O)N[C@@H](C(C)C)C(=O)N[C@H](C(=O)NCC(=O)N[C@@H](CC(=O)O)C(=O)N[C@@H](C)C(=O)NCC(=O)N[C@@H](Cc3ccccc3)C(=O)N[C@@H](Cc3ccc(O)cc3)C(N)=O)CSSC[C@@H](C(=O)N[C@@H](CC(N)=O)C(=O)O)NC(=O)[C@H](Cc3ccc(O)cc3)NC(=O)[C@H](CC[S+](C)[O-])NC(=O)[C@H](CCC(=O)O)NC(=O)[C@H](CC(C)C)NC(=O)[C@H](CCCNC(=N)N)NC(=O)[C@H](CCCNC(=N)N)NC(=O)[C@H](CC(C)C)NC(=O)[C@H](CC(=O)O)NC2=O)NC1=O)C(C)C` (stereo partly shown), at insulin receptor, the “% insulin (in test)” value was found to be 400.7%.
Take “B2, C8-PEG10K di-PEGylated MIU-35 (GPEHLCGAELVDALYLVCGDRGFYGYGSSSRK(PEG 10 kDa)APQTGIVDECCFRSCDLRRLENYCN; not fully specified (N-terminus); ends and bridges not checked; also: PEG10K at B2) [MIU-67]”: the “% Insulin Activity IGF-1 R” value in the test with IGF-1 receptor is reported as <0.1%. Also, the “% Insulin Activity IR-B” value in test [1] is on record as 0.1%. The “% Insulin Activity IR-A” value in test [2] amounted to 0.2%.
As for `CC[C@H](C)[C@H](NC(=O)CN)C(=O)N[C@H](C(=O)N[C@@H](CC(=O)O)C(=O)N[C@@H](CCC(=O)O)C(=O)N[C@H]1CSSC[C@@H]2NC(=O)[C@H](CO)NC(=O)[C@H](CCCNC(=N)N)NC(=O)[C@H](Cc3ccccc3)NC(=O)[C@H](CSSC[C@H](NC(=O)[C@H](CC(C)C)NC(=O)[C@@H](NC(=O)[C@H](CCC(=O)O)NC(=O)[C@@H]3CCCN3C(=O)CN)[C@@H](C)O)C(=O)NCC(=O)N[C@@H](C)C(=O)N[C@@H](CCC(=O)O)C(=O)N[C@@H](CC(C)C)C(=O)N[C@@H](C(C)C)C(=O)N[C@@H](CC(=O)O)C(=O)N[C@@H](C)C(=O)N[C@@H](CC(C)C)C(=O)N[C@@H](Cc3ccc(O)cc3)C(=O)N[C@@H](CC(C)C)C(=O)N[C@@H](C(C)C)C(=O)N[C@H](C(=O)NCC(=O)N[C@@H](CC(=O)O)C(=O)N[C@@H](CCCNC(=N)N)C(=O)NCC(=O)N[C@@H](Cc3ccccc3)C(=O)N[C@@H](Cc3ccc(O)cc3)C(=O)N[C@@H](Cc3ccccc3)C(=O)N[C@@H](CC(N)=O)C(=O)N[C@@H](CCCCN)C(=O)N3CCC[C@H]3C(=O)N[C@H](C(N)=O)[C@@H](C)O)CSSC[C@@H](C(=O)N[C@@H](C)C(N)=O)NC(=O)[C@H](Cc3ccc(N)cc3)NC(=O)[C@H](CCSC)NC(=O)[C@H](CCC(=O)O)NC(=O)[C@H](CC(C)C)NC(=O)[C@H](CCCNC(=N)N)NC(=O)[C@H](CCCNC(=N)N)NC(=O)[C@H](CC(C)C)NC(=O)[C@H](CC(=O)O)NC2=O)NC1=O)C(C)C` [IGF1 (Y^B16L^B17) (p-NH2—F)^A19 amide], on insulin receptor (Table 7), the “% of Insulin Activity” value was 22%.
Regarding “GE5W-B^1(A5H10Y16L17)25-C^1-A^1(H8N18N21) [GE5W-Ala,B5]”, at IGF-1 receptor, the “IGF-1 R” value is given as 0.3%. In test [1], this molecule displayed an IR-B of 2.3%. The same molecule gave an IR-A in test [2] of 8.6%.

The values above are taken from patent publication US9593156B2 (priority 2012, dated 2017).
